The values below come from patent publication US20260315492A1, “5,6-FUSED BICYCLIC AMIDES AND COMPOSITIONS FOR USE AS 15-PROSTAGLANDIN DEHYDROGENASE MODULATORS” (AMGEN INC., priority 2023, published 2026).

For the test, the target named is T1, human recombinant 15-PGDH (Homo sapiens, UniProt P15428).
T1 sequence (P15428 1-266): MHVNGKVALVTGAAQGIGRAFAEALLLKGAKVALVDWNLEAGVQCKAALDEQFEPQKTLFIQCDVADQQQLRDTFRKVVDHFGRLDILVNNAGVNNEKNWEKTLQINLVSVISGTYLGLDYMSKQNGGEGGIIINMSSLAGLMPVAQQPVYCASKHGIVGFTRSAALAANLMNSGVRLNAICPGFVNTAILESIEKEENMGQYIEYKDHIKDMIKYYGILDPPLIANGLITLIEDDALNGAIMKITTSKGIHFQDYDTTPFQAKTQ
The test can be described thus: Inhibition of recombinant 15-PGDH enzymatic activity (NADH quantification after addition of PGE2 and NAD+). In kind it is biochemical. Here is the method:
The compound dose-response of its inhibition of 15-PGDH activity was determined in human recombinant 15-PGDH enzymatical assays. These assays measured 15-PGDH enzymatic activity by quantifying the amount of NADH produced during a 60-minute reaction initiated by the addition of PGE2 and NAD+. Under the conditions of these experiments, the increase of NADH signal upon oxidation of PGE2 and reduction of NAD+ was linearly proportional to 15-PGDH enzymatic activity. The recombinant human, mouse, rat and dog 15-PGDH enzymatic assays were performed in a 25 μL volume of reaction buffer containing 50 mM Tris, pH 7.5, 0.01% Tween-20 and 100 μM DTT in a 384-well microtiter plate. In concentration-response experiments with tested compounds, 22 concentrations from 2-fold serial dilutions in DMSO were pre-incubated with 15-PGDH for 15 minutes at room temperature. Then, PGE2 and ß-NAD+ were added to initiate the 15-PGDH reaction. After 60 minutes at room temperature, the reaction was quenched and NADH signal was measured using a microtiter plate reader.
The following data (Table 11-1) provides the IC50 of each compound for inhibiting enzymatic activity of recombinant 15-PGDH in the assay described above.

The mark [1] stands for this setting: recombinant 15-PGDH, 15 min pre-incubation, 60-minute reaction, room temperature, pH 7.5, PGE2 and NAD+, read-out: PGDH-Lumi IC50.

SMILES strings stand for the structures. Like-named read-outs stand apart in the source and are kept apart here.

Take `C[C@@H]1COCCN1C(=O)c1cc2c(C3CC3)cc(-c3cnc4nn(C)cc4c3)nc2s1` (single isomer, unassigned) [Compound B17R]: the IC50 under setting [1] is 3.11 nM.

In the case of `CC1CC(F)(F)CCN1C(=O)c1cc2ccc(-c3cnc4nn(C)cc4c3)nc2s1` (single isomer, unassigned) [Compound B27R], under setting [1], the half-inhibitory concentration (IC50) came out at 1.51 nM. As to `C[C@H]1CC(F)(F)CCN1C(=O)c1cc2ccc(-c3cnc4nn(C)cc4c3)nc2s1` (single isomer, unassigned) [Compound B27S], the IC50 under setting [1] is 1.24 nM. With `Cn1cc2cc(-c3ccc4cc(C(=O)N5C[C@H]6CC[C@@H]5CO6)sc4n3)cnc2n1` (stereo in doubt) [Compound B52, (6-(2-methyl-2H-pyrazolo[3,4-b]pyridin-5-yl)thieno[2,3-b]pyridin-2-yl)(2-oxa-5-azabicyclo[2.2.2]octan-5-yl)methanone], the IC50 under setting [1] came out at 1.75 nM.

Consider `Cc1c(C(=O)N2CCOC[C@H]2C)sc2cc(-c3cnc4nn(C)cc4c3)ccc12` [Compound A1R, (3-methyl-6-(2-methyl-2H-pyrazolo[3,4-b]pyridin-5-yl)-1-benzothiophen-2-yl)((3R)-3-methyl-4-morpholinyl)methanone], for which the IC50 under setting [1] was 273 nM. Same read-out and setting: the result for `Cc1c(C(=O)N2CCOC[C@@H]2C)sc2cc(-c3cnc4nn(C)cc4c3)ccc12` [Compound A1S, (3-methyl-6-(2-methyl-2H-pyrazolo[3,4-b]pyridin-5-yl)-1-benzothiophen-2-yl)((3S)-3-methyl-4-morpholinyl)methanone] reads 217 nM. On the same count and under the same terms, the result for `Cc1c(C(=O)N2CCOCC2)sc2cc(-c3cnc4nn(C)cc4c3)ccc12` [Compound A2, (3-methyl-6-(2-methyl-2H-pyrazolo[3,4-b]pyridin-5-yl)-1-benzothiophen-2-yl)(4-morpholinyl)methanone] reads 163 nM; that for `Cc1c(C(=O)N2CCC(F)(F)CC2)sc2cc(-c3cnc4nn(C)cc4c3)ccc12` [Compound A3, (4,4-difluoro-1-piperidinyl)(3-methyl-6-(2-methyl-2H-pyrazolo[3,4-b]pyridin-5-yl)-1-benzothiophen-2-yl)methanone], 11.7 nM; that for `CO[C@@H]1CCN(C(=O)c2sc3cc(-c4cnc5nn(C)cc5c4)ccc3c2C)C1` [Compound A4R, ((3R)-3-methoxy-1-pyrrolidinyl)(3-methyl-6-(2-methyl-2H-pyrazolo[3,4-b]pyridin-5-yl)-1-benzothiophen-2-yl)methanone], 225 nM. On the same count and under the same terms, the figure for `CO[C@H]1CCN(C(=O)c2sc3cc(-c4cnc5nn(C)cc5c4)ccc3c2C)C1` [Compound A4S, ((3S)-3-methoxy-1-pyrrolidinyl)(3-methyl-6-(2-methyl-2H-pyrazolo[3,4-b]pyridin-5-yl)-1-benzothiophen-2-yl)methanone] is 19.5 nM; for `COCCN(C)C(=O)c1sc2cc(-c3cnc4nn(C)cc4c3)ccc2c1C` [Compound A5, N-(2-methoxyethyl)-N,3-dimethyl-6-(2-methyl-2H-pyrazolo[3,4-b]pyridin-5-yl)-1-benzothiophene-2-carboxamide] it is 87.8 nM; for `Cc1c(C(=O)N2CCOC(C)(C)C2)sc2cc(-c3cnc4nn(C)cc4c3)ccc12` [Compound A6, (2,2-dimethyl-4-morpholinyl)(3-methyl-6-(2-methyl-2H-pyrazolo[3,4-b]pyridin-5-yl)-1-benzothiophen-2-yl)methanone] it is 185 nM. `CO[C@@H]1CCCN(C(=O)c2sc3cc(-c4cnc5nn(C)cc5c4)ccc3c2C)C1` [Compound A7R, ((3R)-3-methoxy-1-piperidinyl)(3-methyl-6-(2-methyl-2H-pyrazolo[3,4-b]pyridin-5-yl)-1-benzothiophen-2-yl)methanone]: the 50% inhibitory concentration (IC50) under setting [1] came to 49.5 nM.

For `CO[C@H]1CCCN(C(=O)c2sc3cc(-c4cnc5nn(C)cc5c4)ccc3c2C)C1` [Compound A7S, ((3S)-3-methoxy-1-piperidinyl)(3-methyl-6-(2-methyl-2H-pyrazolo[3,4-b]pyridin-5-yl)-1-benzothiophen-2-yl)methanone], under setting [1], the concentration for half-maximal inhibition (IC50) is 66.4 nM.

With `Cc1c(C(=O)N2CCOCC2)sc2cc(-c3cncnc3)ccc12` [Compound A8, (3-methyl-6-(5-pyrimidinyl)-1-benzothiophen-2-yl)(4-morpholinyl)methanone], under setting [1], the IC50 was 4500 nM. On to `Cc1c(C(=O)N2CCOCC2)sc2cc(-c3ccc(=O)n(C)c3)ccc12` [Compound A9, 1-methyl-5-(3-methyl-2-(4-morpholinylcarbonyl)-1-benzothiophen-6-yl)-2(1H)-pyridinone], for which the IC50 under setting [1] was determined as 4960 nM. On the same count and under the same terms, the figure for `Cc1c(C(=O)N2CCOCC2)sc2cc(-c3cnc(NCCO)nc3)ccc12` [Compound A10] is 1610 nM; for `Cc1c(C(=O)N2CCOCC2)sc2cc(-c3ccc4nn(C)cc4c3)ccc12` [Compound A11, (3-methyl-6-(2-methyl-2H-indazol-5-yl)-1-benzothiophen-2-yl)(4-morpholinyl)methanone] it is 851 nM. Turning to `Cn1cc2cc(-c3cc(C4CCC4)c4c(N)c(C(=O)N5CCOCC5)sc4n3)cnc2n1` [Compound B3, (3-amino-4-cyclobutyl-6-(2-methyl-2H-pyrazolo[3,4-b]pyridin-5-yl)thieno[2,3-b]pyridin-2-yl)(4-morpholinyl)methanone], the IC50 under setting [1] was found to be 0.711 nM.

Turning to `Cn1cc2cc(-c3cc(C4CCC4)c4c(N)c(C(=O)N5CCC(F)(F)CC5)sc4n3)cnc2n1` [Compound B4, (3-amino-4-cyclobutyl-6-(2-methyl-2H-pyrazolo[3,4-b]pyridin-5-yl)thieno[2,3-b]pyridin-2-yl)(4,4-difluoro-1-piperidinyl)methanone], the half-maximal inhibitory concentration (IC50) was found to be 0.387 nM. With `Cn1cc2cc(-c3cc(C4CCC4)c4c(N)c(C(=O)N5CCCCC5)sc4n3)cnc2n1` [Compound B5, (3-amino-4-cyclobutyl-6-(2-methyl-2H-pyrazolo[3,4-b]pyridin-5-yl)thieno[2,3-b]pyridin-2-yl)(1-piperidinyl)methanone], under setting [1], the IC50 stood at 0.255 nM. The same measure, in the same setting: the result for `C[C@@H]1COCCN1C(=O)c1sc2nc(-c3cnc4nn(C)cc4c3)cc(C3CCC3)c2c1N` [Compound B6R, (3-amino-4-cyclobutyl-6-(2-methyl-2H-pyrazolo[3,4-b]pyridin-5-yl)thieno[2,3-b]pyridin-2-yl)((3R)-3-methyl-4-morpholinyl)methanone] reads 0.816 nM.

Take `C[C@H]1COCCN1C(=O)c1sc2nc(-c3cnc4nn(C)cc4c3)cc(C3CCC3)c2c1N` [Compound B6S, (3-amino-4-cyclobutyl-6-(2-methyl-2H-pyrazolo[3,4-b]pyridin-5-yl)thieno[2,3-b]pyridin-2-yl)((3S)-3-methyl-4-morpholinyl)methanone]: under setting [1], the IC50 was 0.554 nM.

As to `CC(C)c1cc[n+]([O-])c2sc(C(=O)N3CCCCC3)cc12` [Compound B7, (7-oxido-4-(2-propanyl)thieno[2,3-b]pyridin-2-yl)(1-piperidinyl)methanone], under setting [1], the IC50 is greater than 100000 nM.

Consider `Cn1cc2cc(-c3ccc4cc(C(=O)N5CCOCC5)sc4n3)cnc2n1` [Compound B8, (6-(2-methyl-2H-pyrazolo[3,4-b]pyridin-5-yl)thieno[2,3-b]pyridin-2-yl)(4-morpholinyl)methanone], for which, under setting [1], the IC50 came out at 5.55 nM.

With `C[C@@H]1COCCN1C(=O)c1cc2ccc(-c3cnc4nn(C)cc4c3)nc2s1` [Compound B9R, ((3R)-3-methyl-4-morpholinyl)(6-(2-methyl-2H-pyrazolo[3,4-b]pyridin-5-yl)thieno[2,3-b]pyridin-2-yl)methanone], the IC50 under setting [1] stood at 6.39 nM.

`C[C@H]1COCCN1C(=O)c1cc2ccc(-c3cnc4nn(C)cc4c3)nc2s1` [Compound B9S, ((3S)-3-methyl-4-morpholinyl)(6-(2-methyl-2H-pyrazolo[3,4-b]pyridin-5-yl)thieno[2,3-b]pyridin-2-yl)methanone]: the IC50 under setting [1] turned out to be 5.05 nM. Consider `Cn1cc2cc(-c3cc(C4CC4)c4cc(C(=O)N5CCOCC5)sc4n3)cnc2n1` [Compound B10, (4-cyclopropyl-6-(2-methyl-2H-pyrazolo[3,4-b]pyridin-5-yl)thieno[2,3-b]pyridin-2-yl)(4-morpholinyl)methanone], for which the IC50 under setting [1] was 0.917 nM.

For `Cn1cc2cc(-c3cc(C4CC4)c4cc(C(=O)N5CCCC(F)(F)C5)sc4n3)cnc2n1` [Compound B11, (4-cyclopropyl-6-(2-methyl-2H-pyrazolo[3,4-b]pyridin-5-yl)thieno[2,3-b]pyridin-2-yl)(3,3-difluoro-1-piperidinyl)methanone], the IC50 under setting [1] is 0.317 nM. Take `COCCN(C)C(=O)c1cc2c(C3CC3)cc(-c3cnc4nn(C)cc4c3)nc2s1` [Compound B12, 4-cyclopropyl-N-(2-methoxyethyl)-N-methyl-6-(2-methyl-2H-pyrazolo[3,4-b]pyridin-5-yl)thieno[2,3-b]pyridine-2-carboxamide]: under setting [1], the IC50 is 0.704 nM. Turning to `Cn1cc2cc(-c3cc(-c4ccnn4C)c4cc(C(=O)N5CCOCC5)sc4n3)cnc2n1` [Compound B13, (6-(2-methyl-2H-pyrazolo[3,4-b]pyridin-5-yl)-4-(1-methyl-1H-pyrazol-5-yl)thieno[2,3-b]pyridin-2-yl)(4-morpholinyl)methanone], the IC50 under setting [1] is 1.26 nM.

For orientation: IC50 means the point on the concentration scale where inhibition reaches its midpoint.
